In US8173813B2, “Quinolone and tetrahydroquinolone and related compounds having NOS inhibitory activity” (NeurAxon, Inc., priority 2007, dated 2012):
Values joined by “and” are separate entries in the source; they are usually repeats but may differ in a detail not shown here. Identical values can stand only once. Like-named read-outs stand apart in the source and are kept apart here.

What was measured:
eNOS (Rat) = eNOS (Rat) (Rattus norvegicus, UniProt Q62600); test: eNOS (Rat) enzyme assay; type: biochemical; conditions: values in parentheses; for IC50: read-out: eNOS IC50 (rodent data in parentheses)
eNOS (Rat), sequence (Q62600 2-1202): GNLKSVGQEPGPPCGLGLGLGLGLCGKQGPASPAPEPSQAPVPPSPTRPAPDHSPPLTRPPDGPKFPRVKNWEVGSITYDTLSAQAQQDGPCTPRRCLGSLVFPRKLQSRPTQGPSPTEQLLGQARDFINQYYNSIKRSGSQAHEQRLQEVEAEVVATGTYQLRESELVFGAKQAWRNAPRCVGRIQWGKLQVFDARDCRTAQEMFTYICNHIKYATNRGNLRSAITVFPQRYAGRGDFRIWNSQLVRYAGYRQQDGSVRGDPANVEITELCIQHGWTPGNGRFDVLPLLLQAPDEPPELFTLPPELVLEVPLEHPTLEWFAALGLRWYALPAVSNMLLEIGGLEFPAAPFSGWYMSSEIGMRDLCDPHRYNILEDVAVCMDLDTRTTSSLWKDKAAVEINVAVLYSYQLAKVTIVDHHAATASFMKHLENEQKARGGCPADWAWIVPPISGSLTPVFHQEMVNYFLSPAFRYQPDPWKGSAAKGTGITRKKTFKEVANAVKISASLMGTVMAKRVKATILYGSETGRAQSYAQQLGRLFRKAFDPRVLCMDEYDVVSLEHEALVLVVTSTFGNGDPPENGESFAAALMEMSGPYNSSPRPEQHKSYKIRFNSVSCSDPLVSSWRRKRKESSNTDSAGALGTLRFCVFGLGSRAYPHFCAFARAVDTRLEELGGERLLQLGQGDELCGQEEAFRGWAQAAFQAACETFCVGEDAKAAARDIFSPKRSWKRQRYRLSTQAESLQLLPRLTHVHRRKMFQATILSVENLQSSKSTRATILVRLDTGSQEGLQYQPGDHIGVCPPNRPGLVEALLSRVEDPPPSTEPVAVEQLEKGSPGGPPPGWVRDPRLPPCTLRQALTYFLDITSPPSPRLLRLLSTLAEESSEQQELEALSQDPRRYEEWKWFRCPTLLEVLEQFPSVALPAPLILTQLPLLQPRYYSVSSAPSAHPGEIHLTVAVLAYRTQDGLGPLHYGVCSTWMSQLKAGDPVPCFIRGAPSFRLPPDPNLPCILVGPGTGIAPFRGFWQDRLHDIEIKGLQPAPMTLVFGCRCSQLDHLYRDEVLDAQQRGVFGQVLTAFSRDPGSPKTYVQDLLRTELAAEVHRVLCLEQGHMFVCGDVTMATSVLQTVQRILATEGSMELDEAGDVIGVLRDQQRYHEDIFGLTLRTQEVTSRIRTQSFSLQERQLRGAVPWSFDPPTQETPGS

[1] = tested on: Rats with L5/L6 spinal nerve ligation; test: Chung Spinal Nerve Ligation model, thermal hyperalgesia; type: in vivo, rat; conditions: standard dosings 3, 10, and 30 mg/kg injected IP
[2] = target: Nitric oxide synthase (neuronal, human recombinant) nNOS (Homo sapiens, UniProt P29475); test: Human nNOS enzyme assay ([3H]L-arginine to [3H]L-citrulline); type: biochemical; conditions: for IC50: read-out: hnNOS IC50; for Selectivity eNOS/nNOS: human enzymes, ratio of eNOS IC50 to nNOS IC50
Nitric oxide synthase (neuronal, human recombinant) nNOS, sequence (P29475 whole entry): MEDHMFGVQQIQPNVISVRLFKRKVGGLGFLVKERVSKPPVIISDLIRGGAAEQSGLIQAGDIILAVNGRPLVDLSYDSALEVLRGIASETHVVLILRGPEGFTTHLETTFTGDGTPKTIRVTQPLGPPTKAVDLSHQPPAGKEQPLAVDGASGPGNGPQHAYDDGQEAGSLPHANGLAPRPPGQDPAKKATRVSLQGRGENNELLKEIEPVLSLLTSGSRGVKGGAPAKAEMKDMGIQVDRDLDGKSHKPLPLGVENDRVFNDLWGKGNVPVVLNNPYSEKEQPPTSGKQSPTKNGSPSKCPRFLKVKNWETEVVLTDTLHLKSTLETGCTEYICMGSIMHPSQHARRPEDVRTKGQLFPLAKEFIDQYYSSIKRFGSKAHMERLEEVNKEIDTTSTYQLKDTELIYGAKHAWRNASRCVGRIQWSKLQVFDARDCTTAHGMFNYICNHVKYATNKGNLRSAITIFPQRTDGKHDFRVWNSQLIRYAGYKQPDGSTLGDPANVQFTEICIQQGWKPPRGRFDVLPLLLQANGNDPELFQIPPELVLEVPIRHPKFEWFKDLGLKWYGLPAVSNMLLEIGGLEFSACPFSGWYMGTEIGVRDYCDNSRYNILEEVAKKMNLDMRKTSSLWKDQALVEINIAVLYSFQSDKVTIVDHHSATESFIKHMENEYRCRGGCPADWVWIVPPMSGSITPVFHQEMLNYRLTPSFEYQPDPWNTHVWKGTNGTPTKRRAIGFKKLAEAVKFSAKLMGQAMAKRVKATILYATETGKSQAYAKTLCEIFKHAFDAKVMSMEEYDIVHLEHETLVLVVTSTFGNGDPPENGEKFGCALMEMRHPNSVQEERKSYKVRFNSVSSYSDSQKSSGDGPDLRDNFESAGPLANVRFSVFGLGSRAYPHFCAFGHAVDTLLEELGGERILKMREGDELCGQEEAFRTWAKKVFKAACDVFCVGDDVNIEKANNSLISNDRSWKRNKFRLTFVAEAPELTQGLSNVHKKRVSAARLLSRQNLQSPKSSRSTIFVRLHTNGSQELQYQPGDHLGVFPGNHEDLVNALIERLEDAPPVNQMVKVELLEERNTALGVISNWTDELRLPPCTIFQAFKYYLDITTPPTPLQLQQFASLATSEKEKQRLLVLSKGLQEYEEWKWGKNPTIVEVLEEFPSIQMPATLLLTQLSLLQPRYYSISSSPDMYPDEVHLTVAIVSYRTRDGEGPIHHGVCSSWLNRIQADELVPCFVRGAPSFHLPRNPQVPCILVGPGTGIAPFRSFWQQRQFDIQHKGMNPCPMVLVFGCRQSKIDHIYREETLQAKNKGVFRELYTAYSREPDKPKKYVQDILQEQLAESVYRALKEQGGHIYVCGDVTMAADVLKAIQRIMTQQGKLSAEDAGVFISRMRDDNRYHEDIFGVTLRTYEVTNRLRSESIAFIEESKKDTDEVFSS

nNOS (Rat) = nNOS (Rat) (Rattus norvegicus, UniProt P29476); test: nNOS (Rat) enzyme assay; type: biochemical; conditions: for IC50: read-out: nNOS IC50 (rodent data in parentheses)
Method: (§1) nNOS (Rat), eNOS (Rat) and iNOS (Mouse) Enzyme Assay Recombinant rat or mouse NO synthases (iNOS, eNOS, nNOS) were expressed in Sf9 cells (Sigma), 36 mg prot/ml (Bradford). […] Inhibition of NOS was determined by measuring the formation of L-[3H] citrulline from L-[3H] arginine. […] Stop buffer:100 mM Hepes, pH 5.5, 3 mM EDTA, 3 mM EGTA.

iNOS (Mouse) = iNOS (Mouse) (Mus musculus, UniProt P29477); test: iNOS (Mouse) enzyme assay; type: biochemical; conditions: values in parentheses, read-out: iNOS IC50 (rodent data in parentheses)
Method: as §1, with “EGTA. Enzyme and inhibitor were pre-incubated for 35 min in the presence of NADPH before addition of arginine to initiate the reaction.” for “EGTA.”

[3] = target: Recombinant human inducible NOS (iNOS) (Homo sapiens, UniProt P35228); test: Human iNOS enzyme assay, radiometric; type: biochemical; conditions: read-out: hiNOS IC50
Recombinant human inducible NOS (iNOS), sequence (P35228 whole entry): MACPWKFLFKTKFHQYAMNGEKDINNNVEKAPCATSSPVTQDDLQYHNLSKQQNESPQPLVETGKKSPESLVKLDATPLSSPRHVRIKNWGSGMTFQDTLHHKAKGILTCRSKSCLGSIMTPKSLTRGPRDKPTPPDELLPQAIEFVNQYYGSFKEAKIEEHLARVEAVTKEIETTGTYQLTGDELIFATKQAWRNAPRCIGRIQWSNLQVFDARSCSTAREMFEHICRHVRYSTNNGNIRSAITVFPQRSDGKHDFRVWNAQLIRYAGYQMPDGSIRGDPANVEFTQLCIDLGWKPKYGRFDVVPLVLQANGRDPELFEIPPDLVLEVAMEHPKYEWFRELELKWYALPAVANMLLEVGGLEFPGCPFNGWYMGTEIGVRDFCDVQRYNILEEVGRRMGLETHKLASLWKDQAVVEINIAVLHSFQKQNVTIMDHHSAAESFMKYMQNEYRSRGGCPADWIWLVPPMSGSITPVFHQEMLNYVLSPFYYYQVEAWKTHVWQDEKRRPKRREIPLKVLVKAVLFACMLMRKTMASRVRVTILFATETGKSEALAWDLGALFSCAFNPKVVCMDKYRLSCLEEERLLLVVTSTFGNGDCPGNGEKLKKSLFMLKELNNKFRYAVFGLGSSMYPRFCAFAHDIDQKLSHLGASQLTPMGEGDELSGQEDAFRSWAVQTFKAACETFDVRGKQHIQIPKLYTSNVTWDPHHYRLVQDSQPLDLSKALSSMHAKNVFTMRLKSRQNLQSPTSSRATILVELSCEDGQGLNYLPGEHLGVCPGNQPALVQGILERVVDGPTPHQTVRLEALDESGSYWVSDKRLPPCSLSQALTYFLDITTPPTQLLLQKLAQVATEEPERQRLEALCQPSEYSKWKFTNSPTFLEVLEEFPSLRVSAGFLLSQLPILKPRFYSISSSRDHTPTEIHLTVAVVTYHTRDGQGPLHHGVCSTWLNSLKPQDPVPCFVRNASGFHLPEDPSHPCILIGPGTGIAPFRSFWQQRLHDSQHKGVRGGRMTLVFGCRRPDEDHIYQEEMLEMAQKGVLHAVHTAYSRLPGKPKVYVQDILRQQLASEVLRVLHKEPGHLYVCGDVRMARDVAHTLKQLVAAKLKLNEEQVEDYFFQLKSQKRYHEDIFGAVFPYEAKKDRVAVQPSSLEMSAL

[4] = tested on: Male, Sprague Dawley rats; test: Porreca model of allodynia (inflammatory soup onto the dura, hindpaw von Frey); type: in vivo, rat
[5] = target: Nitric oxide synthase (endothelial, human recombinant) eNOS (Homo sapiens, UniProt P29474); test: Human eNOS enzyme assay ([3H]L-arginine to [3H]L-citrulline); type: biochemical; conditions: read-out: heNOS IC50
Nitric oxide synthase (endothelial, human recombinant) eNOS, sequence (P29474 2-1203): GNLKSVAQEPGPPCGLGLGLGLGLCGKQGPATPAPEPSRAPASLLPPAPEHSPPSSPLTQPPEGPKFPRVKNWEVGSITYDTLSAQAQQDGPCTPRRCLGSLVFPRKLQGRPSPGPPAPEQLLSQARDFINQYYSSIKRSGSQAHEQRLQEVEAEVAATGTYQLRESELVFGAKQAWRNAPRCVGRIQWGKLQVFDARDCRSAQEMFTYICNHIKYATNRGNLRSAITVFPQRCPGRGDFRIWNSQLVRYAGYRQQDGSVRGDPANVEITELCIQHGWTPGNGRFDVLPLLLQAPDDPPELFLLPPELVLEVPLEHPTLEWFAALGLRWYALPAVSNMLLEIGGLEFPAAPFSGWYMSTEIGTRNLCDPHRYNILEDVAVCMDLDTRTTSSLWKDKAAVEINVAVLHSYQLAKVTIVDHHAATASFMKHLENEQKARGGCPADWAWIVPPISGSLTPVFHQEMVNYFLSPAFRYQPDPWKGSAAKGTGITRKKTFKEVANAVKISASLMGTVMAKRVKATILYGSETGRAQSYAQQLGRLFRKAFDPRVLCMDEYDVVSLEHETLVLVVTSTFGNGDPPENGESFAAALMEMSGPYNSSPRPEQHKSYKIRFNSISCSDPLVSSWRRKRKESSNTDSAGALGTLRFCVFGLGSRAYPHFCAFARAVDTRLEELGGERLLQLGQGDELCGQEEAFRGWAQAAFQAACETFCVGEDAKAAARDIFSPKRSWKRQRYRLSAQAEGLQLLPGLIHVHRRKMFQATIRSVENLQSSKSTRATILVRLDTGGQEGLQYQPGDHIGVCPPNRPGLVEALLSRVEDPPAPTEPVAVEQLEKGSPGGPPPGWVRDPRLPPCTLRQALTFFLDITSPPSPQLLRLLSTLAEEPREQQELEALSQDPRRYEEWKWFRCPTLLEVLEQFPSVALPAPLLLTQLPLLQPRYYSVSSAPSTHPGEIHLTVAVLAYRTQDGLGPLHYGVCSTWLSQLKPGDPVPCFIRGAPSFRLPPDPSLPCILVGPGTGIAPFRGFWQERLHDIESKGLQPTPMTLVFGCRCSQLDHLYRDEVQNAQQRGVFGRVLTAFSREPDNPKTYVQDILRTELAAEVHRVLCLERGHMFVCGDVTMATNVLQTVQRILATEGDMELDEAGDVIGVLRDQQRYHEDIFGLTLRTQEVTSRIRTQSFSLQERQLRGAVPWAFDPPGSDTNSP

[6] = human recombinant nNOS, values without parentheses
[7] = rat nNOS, values in parentheses
[8] = human recombinant iNOS, values without parentheses
[9] = human recombinant eNOS, values without parentheses

Compound | IC50 (eNOS (Rat)) [µM] | IC50 (iNOS (Mouse)) [µM] | IC50 [5] [µM] | IC50 [2, 6] | IC50 (nNOS (Rat); [7]) [µM] | IC50 [3, 8] [µM] | eNOS IC50 (rodent data in parentheses) (eNOS (Rat)) | IC50 [5, 9] | Selectivity eNOS/nNOS [2] | antihyperalgesic effect in the Chung model [1] | IC50 [2] [µM] | IC50 (nNOS (Rat)) [µM] | IC50 [3] [µM] | hindpaw allodynia after inflammatory soup (IS) ([4]; 30 mg/kg p.o. 15 minutes prior to IS) | Selectivity eNOS/nNOS (rodent data in parentheses) (nNOS (Rat); rodent enzymes, values in parentheses) | hindpaw allodynia after inflammatory soup (IS) ([4]; 1 mg/kg s.c. 5 minutes prior to the soup, measured two hours after IS)
CN(C)CCN1C(=O)CCc2cc(NC(=N)c3cccs3)ccc21 [Example 3, N-(1-(2-(dimethylamino)ethyl)-2-oxo-1,2,3,4-tetrahydroquinolin-6-yl)thiophene-2-carboximidamide] | 65 | > 100 | – | – | – | – | – | – | – | no antihyperalgesic effect | 0.58 | 0.21 | 32 | – | – | –
CN(C)CCN1CCCCc2cc(NC(=N)c3cccs3)ccc21.Cl.Cl [Example 28, N-(1-(2-(Dimethylamino)ethyl)-2,3,4,5-tetrahydro-1H-benzo[b]azepin-7-yl)thiophene-2-carboximidamide dihydrochloride] | 62.7 | > 100 | 99.1 | 0.44 µM | 0.12 | 35.7 | – | – | – | clear antihyperalgesic effect | – | – | – | reverses the development of hindpaw allodynia | – | –
Cl.Cl.N=C(Nc1ccc2c(c1)CCN2C1CCNCC1)c1cccs1 [Example 54, N-(1-(Piperidin-4-yl)indolin-5-yl)thiophene-2-carboximidamide dihydrochloride] | 12 | 7.53 | – | 0.27 µM | 2.6 | – | – | 46 µM | 170 | clear antihyperalgesic effect | – | – | > 100 | – | – | –
CC(C)NCCN1CCCc2cc(NC(=N)c3cccs3)ccc21 [Example 61, N-(1-(2-(Isopropylamino)ethyl)-1,2,3,4-tetrahydroquinolin-6-yl)thiophene-2-carboximidamide] | 6.2 | 8 | – | 0.26 µM | 1.1 | – | – | 30.2 µM | 116 | – | – | – | 2.9 | – | (5.6) | –
CNS(=O)(=O)Cc1ccc2[nH]cc(CCN(C)C)c2c1 [Sumatriptan succinate, reference compound] | – | – | – | – | – | – | – | – | – | – | – | – | – | – | – | prevention of the development of hindpaw allodynia

The next lines start with results.

IC50 (eNOS (Rat)) [µM] | IC50 (iNOS (Mouse)) [µM] | IC50 [5] [µM] | IC50 [2, 6] | IC50 (nNOS (Rat); [7]) [µM] | IC50 [3, 8] [µM] | eNOS IC50 (rodent data in parentheses) (eNOS (Rat)) | IC50 [5, 9] | Selectivity eNOS/nNOS [2] | Compound | antihyperalgesic effect in the Chung model [1] | IC50 [2] [µM] | IC50 (nNOS (Rat)) [µM] | IC50 [3] [µM] | hindpaw allodynia after inflammatory soup (IS) ([4]; 30 mg/kg p.o. 15 minutes prior to IS) | Selectivity eNOS/nNOS (rodent data in parentheses) (nNOS (Rat); rodent enzymes, values in parentheses) | hindpaw allodynia after inflammatory soup (IS) ([4]; 1 mg/kg s.c. 5 minutes prior to the soup, measured two hours after IS)
– | > 100 | 40.7 | 0.57 µM and 0.38 µM and 0.18 µM | 0.192 | > 100 | (inactive) | 24.7 µM and 29 µM | – | CNCCN1CCCc2cc(NC(=N)c3cccs3)ccc21.Cl.Cl [Example 30, N-(1-(2-(Methylamino)ethyl)-1,2,3,4-tetrahydroquinolin-6-yl)thiophene-2-carboximidamide dihydrochloride] | – | – | – | – | – | – | –
> 100 | > 100 | – | 0.6 µM | 0.99 | 5.52 | – | 22.9 µM | 38.3 | CN1CCC(C2C(=O)Nc3ccc(NC(=N)c4cccs4)cc32)CC1 (stereo not drawn) [Example 31, N-(3-(1-Methylpiperidin-4-yl)-2-oxoindolin-5-yl)thiophene-2-carboximidamide] | – | – | – | – | – | – | –
> 100 | > 100 | – | 0.45 µM | 0.94 | 0.26 | – | 37.7 µM | 83.2 | CN(C)CCN1CCCc2ccc(NC(=N)c3cccs3)cc21 [Example 32, N-(1-(2-(Dimethylamino)ethyl)-1,2,3,4-tetrahydroquinolin-7-yl)thiophene-2-carboximidamide] | – | – | – | – | – | – | –
– | – | – | 1.22 µM | – | 4.35 | – | 50.3 µM | 41.2 | CN1CCC(N2CCc3cc(NC(=N)c4cccs4)ccc32)CC1 [Example 37, N-(1-(1-Methylpiperidin-4-yl)indolin-5-yl)thiophene-2-carboximidamide] | clear antihyperalgesic effect | – | – | – | – | – | –
0.63 | 4.3 | – | 0.12 µM | 0.48 | > 100 | – | 22.4 µM | 187 | CNCCN1CCCc2ccc(NC(=N)c3cccs3)cc21 [Example 44, N-(1-(2-(Methylamino)ethyl)-1,2,3,4-tetrahydroquinolin-7-yl)thiophene-2-carboximidamide] | – | – | – | – | – | – | –
> 100 | 0.34 | – | 0.6 µM | 3.8 | 6.57 | – | 156 µM | 260 | N=C(Nc1ccc2c(c1)CCCN2C1CCNCC1)c1cccs1 [Example 47] | clear antihyperalgesic effect | – | – | – | – | – | –
